Measured values: PubChem BioAssay (NCI)
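Cells were grown in 96-well plates and exposed to each compound for 48 hours at five concentrations; endpoints were interpolated linearly between bracketing concentrations, or set to the highest concentration if not reached. Here, GI50 denotes the concentration required for 50% inhibition of growth. TGI is the concentration that stops growth completely.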

Legend:
Assay in all cases: DTP human tumour cell line panel, 48 h
[1] = test system: NCI-H460 lung
[2] = test system: TK-10 renal
[3] = test system: MOLT-4 leukemia
[4] = test system: MALME-3M melanoma
[5] = test system: K-562 leukemia
[6] = test system: LOX IMVI melanoma
[7] = test system: SN12C renal
[8] = test system: MDA-MB-231 breast
[9] = test system: OVCAR-5 ovarian
[10] = test system: BT-549 breast

| Structure (SMILES) | TGI [1] [µM] | TGI [2] [µM] | TGI [3] [µM] | TGI [4] [µM] | TGI [5] [µM] | TGI [6] [µM] | TGI [7] [µM] | GI50 [1] [µM] | GI50 [8] [µM] | TGI [8] [µM] | GI50 [3] [µM] | GI50 [5] [µM] | GI50 [6] [µM] | GI50 [7] [µM] | GI50 [2] [µM] | GI50 [4] [µM] | GI50 [9] [µM] | TGI [9] [µM] | GI50 [10] [µM] | TGI [10] [µM] |
| --- | --- | --- | --- | --- | --- | --- | --- | --- | --- | --- | --- | --- | --- | --- | --- | --- | --- | --- | --- | --- |
| NC(CCCC(N)P(=O)(O)O)P(=O)(O)O (stereo unspecified) | > 100 | > 100 | > 100 | > 100 | > 100 | > 100 | > 100 |  |  |  |  |  |  |  |  |  |  |  |  |  |
| COc1ccc2c(c1)C(=O)CCc1cc(OC)c(OC)c(OC)c1-2 | > 100 | > 100 | 35.4 |  | > 100 | > 100 | > 100 | < 0.01 | < 0.01 | > 100 | < 0.01 | < 0.01 | < 0.01 | < 0.01 |  |  |  |  |  |  |
| CC(C)CNc1nc(-c2ccccc2Cl)nc2ccccc12 | 36.1 | 29.6 | 54.9 | 25.9 | 43.5 | 27.6 | 30.6 | 18.3 |  |  | 17.9 | 16.8 | 14.5 | 16.5 | 15.8 | 12.4 | 18.6 | 35.2 |  |  |
| CCC[CH2][Sn]([CH2]CCC)([O]C(=O)CN)[O]C(=O)CN | > 100 | > 100 | > 100 | 41.2 | > 100 | 59.7 | > 100 | > 100 |  |  | 29.1 | 18.7 | 22.1 | 57.2 | 38.4 | 6.1 | > 100 | > 100 |  |  |
| CCCCCCCCCCCCCP(=O)(O)O | > 100 | > 100 |  | > 100 |  | > 100 | > 100 |  |  |  |  |  |  |  |  |  |  | > 100 |  |  |
| [N-]=[N+]=NCCCn1c2c(c3ccc([N+](=O)[O-])cc3c1=O)C(=O)c1ccccc1-2 | > 100 | > 100 | > 100 |  | > 100 | > 100 | > 100 | 8.65 | 3.57 | 43.2 |  | 1.05 | 8.66 | 72.5 | 99.2 |  | > 100 | > 100 | 27.4 | > 100 |
| O=c1[nH]c2ccccc2cc1-c1nc2ccc(Cl)cc2[nH]1 | > 100 | > 100 |  | > 100 | > 100 | > 100 | > 100 | 2.61 | 3.25 | 85.9 |  | 3.85 | 4.43 | 3.17 | 2.51 | > 100 | 51.7 | > 100 | 2.99 | > 100 |
| N#C/C(=C/c1cccc(Oc2ccccc2)c1)c1ccccc1 | > 100 | > 100 | > 100 | > 100 | > 100 | > 100 | > 100 |  |  |  |  |  |  |  |  |  |  | > 100 |  |  |
| COc1cc(Nc2ncccc2C(=O)Nc2nc3ccc(F)cc3s2)cc(OC)c1OC | > 100 |  | 5.85 | > 100 |  | > 100 | > 100 | 3.3 | 4.61 | > 100 | 2.11 |  | 3.87 | 4.73 |  | 3.27 | 25.6 | > 100 | 2.63 | > 100 |
| CCC1=CCN(c2cc(C)ccn2)OC1c1ccc(OC)cc1 (stereo unspecified) | > 100 |  | 82.4 | 84.1 | > 100 | > 100 | 64.6 |  |  |  |  |  |  |  |  |  |  | > 100 |  |  |
| COc1ccc([C@@]2(O)c3c(ccc(O)c3OC)[C@H]2OC)c(OC)c1 | > 100 | > 100 | > 100 | > 100 | > 100 |  | > 100 |  |  |  |  |  |  |  |  |  |  | > 100 |  |  |
| COc1ccc(C=O)cc1O[Si](C)(C)C(C)(C)C | > 100 | > 100 | > 100 | > 100 | > 100 | > 100 | > 100 |  |  |  |  |  |  |  |  |  |  | > 100 |  |  |
| O=C1NC(=S)S/C1=C/c1ccc2c(c1)OCO2 | > 100 | > 100 | > 100 | > 100 | > 100 | > 100 | > 100 | > 100 | > 100 | > 100 | > 100 | > 100 | > 100 | > 100 | > 100 | 23 | > 100 | > 100 |  |  |
| COc1ccc2nc3cc(Cl)ccc3c(Sc3ccc([N+](=O)[O-])cc3C)c2c1 | > 100 | > 100 | > 100 | > 100 | > 100 | > 100 | > 100 |  |  |  |  |  |  |  |  |  |  | > 100 |  |  |
| O=C(Nc1ccc(C(F)(F)F)cc1[N+](=O)[O-])C(=O)C1NC(=S)NC1=O (stereo unspecified) | > 100 | > 100 | > 100 | > 100 | > 100 | > 100 | 5.05 |  |  |  |  |  |  |  |  |  |  | > 100 |  |  |
| COCCOC(=O)C1=C(O)c2ccccc2S(=O)(=O)N1C | > 100 | > 100 | > 100 | > 100 | > 100 | > 100 | > 100 |  |  | > 100 |  |  |  |  |  |  |  | > 100 |  |  |
| CC(=O)Oc1c(C)c(-c2ccccc2)c(C)c(-c2ccccc2)c1C(=S)c1ccccc1 | > 100 | > 100 | > 100 | > 100 | > 100 | > 100 | > 100 |  |  |  |  |  |  |  |  |  |  | > 100 |  |  |
| CC(=O)OC1OC([C@H]2c3cccc(O)c3C(=O)c3c(O)cc(C)cc32)C(O)C(O)C1O (stereo partly specified) | 1.41 | 1.75 |  |  | > 33.5 | < 0.0251 |  | 0.105 | 0.0188 | 0.0671 | 1.03 | 0.203 | < 0.0146 | < 0.0259 | 0.254 |  | < 0.0296 | 4.71 | 0.356 | 1.03 |
